Like-named read-outs stand apart in the source and are kept apart here.
How the values were obtained:
HLA-A*6802 = HLA-A*6802 (Homo sapiens, UniProt P04439, A269V/D140Y/D185E/E176V/E277Q/E87N/F33Y/G231S/I121R/I166T/I218V/L180W/L300P/L318F/N151K/P208A/P217A/Q86R/R138H/R169H/S129P/T345S/V36M); assay: HLA class I binding assay, purified HLA, inhibition of 125I-labelled probe peptide
HLA-A*0206 = HLA-A*0206 (Homo sapiens, UniProt P04439, D140Y/D185E/D98H/E176V/E277Q/F33Y/G131W/G231S/I119V/I121R/I166T/I218V/L300P/L318F/N151K/N90K/P208A/P217A/Q86G/Q94H/R138H/R169H/T345S); assay: as above
HLA-A*0203 = HLA-A*0203 (Homo sapiens, UniProt P04439, A173T/D140Y/D185E/D98H/E277Q/G131W/G231S/I119V/I121R/I166T/I218V/L180W/L300P/L318F/N151K/N90K/P208A/P217A/Q86G/Q94H/R138H/R169H/T345S); assay: as above
HLA-A*0201 = HLA-A*0201 (Homo sapiens, UniProt P04439, D140Y/D185E/D98H/E176V/E277Q/G131W/G231S/I119V/I121R/I166T/I218V/L300P/L318F/N151K/N90K/P208A/P217A/Q86G/Q94H/R138H/R169H/T345S); assay: as above; conditions: A*[…], A2 supermotif cross-reactive binding data
[1] = tested on: .221A2.1 peptide-loaded target cells and cells expressing endogenous antigen; assay: Primary in vitro CTL induction with peptide-pulsed DC, CTL lytic activity by 51Cr release; type: cell-based, human; conditions: immunogenicity, positive/tested; for A2 peptide: CTL recognition of the peptide; for A2 native: CTL recognition of native (wild-type) target
Method: Testing was performed using the following methodology:
Cells that express an antigen of interest, or transfectants comprising the gene encoding the antigen of interest, can be used as target cells to test the ability of peptide-specific CTLs to recognize endogenous antigen.
The monocytes are purified by plating 10×10^6 PBMC/well in a 6-well plate. After 2 hours at 37° C., the non-adherent cells are removed by gently shaking the plates and aspirating the supernatants. The wells are washed a total of three times with 3 ml RPMI to remove most of the non-adherent and loosely adherent cells. Three ml of complete medium containing 50 ng/ml of GM-CSF and 1,000 U/ml of IL-4 are then added to each well. TNFα is added to the DCs on day 6 at 75 ng/ml and the cells are used for CTL induction cultures on day 7.
Induction of CTL with DC and Peptide: CD8+ T-cells are isolated by positive selection with Dynal imnmunomagnetic beads (Dynabeads® M-450) and the detacha-bead® reagent. Typically about 200-250×10^6 PBMC are processed to obtain 24×10^6 CD8^+T-cells (enough for a 48-well plate culture). Briefly, the PBMCs are thawed in RPMI with 30 μg/ml DNAse, washed once with PBS containing 1% human AB serum and resuspended in PBS/1% AB serum at a concentration of 20×10^6 cells/ml. The magnetic beads are washed 3 times with PBS/AB serum, added to the cells (140 μl beads/20×10^6 cells) and incubated for 1 hour at 4° C. with continuous mixing. The beads and cells are washed 4× with PBS/AB serum to remove the nonadherent cells and resuspended at 100×10^6 cells/ml (based on the original cell number) in PBS/AB serum containing 100 μl/ml detacha-bead® reagent and 30 μg/ml DNAse. The mixture is incubated for 1 hour at room temperature with continuous mixing. The beads are washed again with PBS/AB/DNAse to collect the CD8+ T-cells. The DC are collected and centrifuged at 1300 rpm for 5-7 minutes, washed once with PBS with 1% BSA, counted and pulsed with 40 μg/ml of peptide at a cell concentration of 1-2×10^6/ml in the presence of 3 μg/ml β2-microglobulin for 4 hours at 20° C. The DC are then irradiated (4,200 rads), washed 1 time with medium and counted again.
Setting up induction cultures: 0.25 ml cytokine-generated DC (@1×10^5 cells/ml) are co-cultured with 0.25 ml of CD8+ T-cells (@2×10^6 cell/ml) in each well of a 48-well plate in the presence of 10 ng/ml of IL-7. Recombinant human IL10 is added the next day at a final concentration of 10 ng/ml and rhuman IL2 is added 48 hours later at 10 IU/mL.
Restimulation of the induction cultures with peptide-pulsed adherent cells: Seven and fourteen days after the primary induction the cells are restimulated with peptide-pulsed adherent cells. The PBMCS are thawed and washed twice with RPMI and DNAse. The cells are resuspended at 5×10^6 cells/ml and irradiated at ˜4200 rads. The PBMCs are plated at 2×10^6 in 0.5 ml complete medium per well and incubated for 2 hours at 37° C. The plates are washed twice with RPMI by tapping the plate gently to remove the nonadherent cells and the adherent cells pulsed with 10 μg/ml of peptide in the presence of 3 μg/ml β2 microglobulin in 0.25 ml RPMI/5% AB per well for 2 hours at 37° C. Peptide solution from each well is aspirated and the wells are washed once with RPMI. Most of the media is aspirated from the induction cultures (CD8+ cells) and brought to 0.5 ml with fresh media. The cells are then transferred to the wells containing the peptide-pulsed adherent cells. Twenty four hours later rhuman IL10 is added at a final concentration of 10 ng/ml and rhuman IL2 is added the next day and again 2-3 days later at 50 IU/ml (Tsai et al., Critical Reviews in Immunology 18(1-2):65-75, 1998). Seven days later the cultures are assayed for CTL activity in a ^51Cr release assay. In some experiments the cultures are assayed for peptide-specific recognition in the in situ IFNγ ELISA at the time of the second restimulation followed by assay of endogenous recognition 7 days later. […]

[2] = A2 supermotif cross-reactive binding data, read-out: A*6802 nM
[3] = A*[…], A2 supermotif cross-reactive binding data

SMILES	IC50 (HLA-A*0203; [3]) [nM]	A2 peptide [1]	A2 native [1]	further results
CSCC[C@H](NC(=O)[C@H](C)NC(=O)[C@H](CO)NC(=O)[C@H](CCSC)NC(=O)[C@H](CC(C)C)NC(=O)[C@@H](N)[C@@H](C)O)C(=O)N[C@H](C(=O)N[C@@H](CC(N)=O)C(=O)N[C@@H](CC(C)C)C(=O)N[C@@H](C)C(=O)O)[C@@H](C)O [Peptide 20.0312]	–	–	–	IC50 (HLA-A*6802): 6670 nM; IC50 (HLA-A*0206): 3700 nM; IC50 (HLA-A*0203): 37 nM
CC(C)C[C@H](NC(=O)[C@H](CC(C)C)NC(=O)[C@@H](N)CC(C)C)C(=O)N[C@@H](C)C(=O)N[C@@H](CCCNC(=N)N)C(=O)N[C@@H](C)C(=O)N[C@@H](C)C(=O)N[C@@H](CO)C(=O)N[C@H](C(=O)O)C(C)C [Peptide 60.0201]	6.7	–	–	IC50 (HLA-A*6802; [2]): > 10000 nM; IC50 (HLA-A*0206; [3]): 95 nM
CC(C)C[C@H](NC(=O)[C@H](CC(C)C)NC(=O)CNC(=O)[C@H](CC(N)=O)NC(=O)[C@H](Cc1ccc(O)cc1)NC(=O)[C@@H](NC(=O)[C@H](CC(=O)O)NC(=O)[C@H](CC(C)C)NC(=O)[C@H](C)N)C(C)C)C(=O)O [Peptide 1177.02]	–	–	–	IC50 (HLA-A*6802; [2]): > 10000 nM; IC50 (HLA-A*0201): 73 nM; IC50 (HLA-A*0203): 256 nM
CSCC[C@H](N)C(=O)N[C@@H](CC(C)C)C(=O)N[C@@H](CC(C)C)C(=O)N[C@@H](CCCNC(=N)N)C(=O)N[C@@H](CC(C)C)C(=O)N[C@@H](CO)C(=O)N[C@@H](CCC(=O)O)C(=O)N1CCC[C@H]1C(=O)N[C@@H](C)C(=O)N[C@@H](CCC(=O)O)C(=O)N[C@H](C(=O)O)C(C)C [Peptide 1389.12]	115	–	–	IC50 (HLA-A*6802; [2]): 4440 nM; IC50 (HLA-A*0201): 294 nM
CC(C)C[C@H](NC(=O)[C@H](CO)NC(=O)[C@@H](NC(=O)[C@H](CS)NC(=O)[C@H](CCC(N)=O)NC(=O)[C@H](CC(C)C)NC(=O)[C@@H](N)CO)C(C)C)C(=O)N[C@@H](Cc1c[nH]cn1)C(=O)N[C@H](C(=O)O)C(C)C [Peptide 1418.19]	48	–	–	IC50 (HLA-A*0206; [3]): 4110 nM; IC50 (HLA-A*0201): 56 nM
CSCC[C@H](NC(=O)[C@@H](N)Cc1ccccc1)C(=O)N[C@@H](CC(C)C)C(=O)N[C@@H](CS)C(=O)N[C@@H](C)C(=O)NCC(=O)N[C@@H](CC(C)C)C(=O)N[C@@H](Cc1c[nH]c2ccccc12)C(=O)N[C@H](C(=O)O)C(C)C [Peptide 1418.22]	91	–	–	IC50 (HLA-A*6802; [2]): > 10000 nM; IC50 (HLA-A*0206; [3]): 51 nM
CC[C@H](C)[C@H](N)C(=O)N[C@H](C(=O)N[C@@H](CC(C)C)C(=O)N[C@@H](CO)C(=O)N[C@H](C(=O)NCC(=O)N[C@@H](CS)C(=O)N[C@H](C(=O)NCC(=O)N[C@@H](C)C(=O)N[C@H](C(=O)O)C(C)C)[C@@H](C)O)C(C)C)[C@@H](C)O [Peptide 1418.59]	40	–	–	IC50 (HLA-A*0206; [3]): 206 nM; IC50 (HLA-A*0201): 294 nM
CC(C)C[C@H](NC(=O)[C@H](C)N)C(=O)NCC(=O)N[C@H](C(=O)N[C@H](C(=O)N[C@@H](CS)C(=O)N[C@@H](Cc1ccc(O)cc1)C(=O)N[C@@H](C)C(=O)O)[C@@H](C)O)[C@@H](C)O [Peptide 1419.01]	–	1/2	–	–
CC(C)C[C@H](NC(=O)[C@H](CO)NC(=O)[C@H](CCCNC(=N)N)NC(=O)[C@@H]1CCCN1C(=O)[C@H](CCCNC(=N)N)NC(=O)[C@H](CC(C)C)NC(=O)[C@@H](N)Cc1ccccc1)C(=O)N[C@@H](CCC(N)=O)C(=O)N[C@@H](CS)C(=O)N[C@H](C(=O)O)C(C)C [Peptide 1419.07]	–	1/3	–	–
CC(C)C[C@H](NC(=O)[C@@H](N)C(C)C)C(=O)N[C@H](C(=O)N[C@@H](Cc1c[nH]cn1)C(=O)N1CCC[C@H]1C(=O)N[C@@H](CCC(N)=O)C(=O)N[C@@H](Cc1c[nH]c2ccccc12)C(=O)N[C@H](C(=O)N[C@@H](CC(C)C)C(=O)N[C@H](C(=O)N[C@H](C(=O)O)C(C)C)[C@@H](C)O)C(C)C)C(C)C [Peptide 1419.11]	–	2/2	2/2	–
CSCC[C@H](NC(=O)[C@H](CC(C)C)NC(=O)[C@@H](N)CC(=O)O)C(=O)N[C@@H](CC(C)C)C(=O)N[C@@H](CC(C)C)C(=O)N[C@@H](CCCNC(=N)N)C(=O)N[C@@H](CC(C)C)C(=O)N[C@@H](CO)C(=O)N[C@@H](CCC(=O)O)C(=O)N1CCC[C@H]1C(=O)N[C@H](C(=O)O)C(C)C [Peptide 1419.13]	–	2/2	2/2	–
CSCC[C@H](NC(=O)[C@H](CC(=O)O)NC(=O)[C@H](CC(N)=O)NC(=O)[C@H](CO)NC(=O)[C@H](CC(C)C)NC(=O)[C@H](CC(C)C)NC(=O)[C@H](Cc1c[nH]cn1)NC(=O)[C@H](CC(C)C)NC(=O)[C@@H](N)CO)C(=O)N[C@@H](CS)C(=O)N[C@@H](C)C(=O)O [Peptide 1419.14]	–	1/3	–	–
CC(C)C[C@H](NC(=O)[C@@H]1CCCN1)C(=O)N[C@H](C(=O)N[C@@H](CS)C(=O)N[C@@H](CC(N)=O)C(=O)NCC(=O)N[C@H](C(=O)N[C@@H](CC(C)C)C(=O)N[C@@H](CCC(N)=O)C(=O)NCC(=O)N[C@H](C(=O)O)C(C)C)C(C)C)C(C)C [Peptide 1419.17]	–	2/2	2/2	–
CC(C)C[C@H](NC(=O)[C@H](CC(=O)O)NC(=O)[C@@H](NC(=O)[C@H](CS)NC(=O)[C@H](CCC(N)=O)NC(=O)[C@H](CC(C)C)NC(=O)[C@@H](N)CCCCN)C(C)C)C(=O)N[C@@H](Cc1c[nH]cn1)C(=O)N[C@H](C(=O)N[C@H](C(=O)O)C(C)C)C(C)C [Peptide 1419.24]	–	1/2	1/2	–
CC[C@H](C)[C@H](NC(=O)[C@H](Cc1c[nH]c2ccccc12)NC(=O)[C@@H](NC(=O)[C@@H](NC(=O)[C@H](CO)NC(=O)[C@H](CC(C)C)NC(=O)[C@@H](NC(=O)[C@H](CC(C)C)NC(=O)[C@@H](N)Cc1ccccc1)[C@@H](C)O)C(C)C)[C@@H](C)O)C(=O)NCC(=O)N[C@H](C(=O)O)C(C)C [Peptide 1419.27]	–	3/3	3/3	–
CC(C)C[C@H](NC(=O)[C@H](C)N)C(=O)N[C@@H](Cc1ccccc1)C(=O)N1CCC[C@H]1C(=O)N1CCC[C@H]1C(=O)N[C@@H](CCC(=O)O)C(=O)NCC(=O)N[C@H](C(=O)N[C@@H](CO)C(=O)N[C@H](C(=O)O)C(C)C)C(C)C [Peptide 1419.61]	–	1/3	1/3	–

Source: patent US20040037843A1, “Inducing cellular immune responses to prostate cancer antigens using peptide and nucleic acid compositions” (priority 2003, published 2004)
